Measurements published in US20200405687A1, “METHODS FOR THE TREATMENT OF INFECTION” (Corbus Pharmaceuticals, Inc., priority 2016, published 2020).

Test system: UV-killed Escherichia coli
Assay: Skin challenge (blister) model, intradermal UV-killed E. coli in healthy volunteers (Example 3)
Type: in vivo, humans
Protocol: The ability of administration of a pharmaceutical composition including ajulemic acid to treat infection was assayed in a skin challenge model. A self-resolving acute inflammatory response was triggered by the intradermal injection of UV-killed Escherichia coli into the forearm of healthy volunteers. […] This study was performed to determine whether ajulemic acid promotes the resolution of infection at the site of inflammation, thereby treating that infection.
Cells and exudates were harvested at several time points following injection of UV-killed E. coli by applying negative pressure over the inflamed site.
The study included four experimental groups (n=10 in each group): • 1) Placebo, twice daily for four days • 2) Ajulemic acid, 5 mg, twice daily for four days • 3) Ajulemic acid, 20 mg, twice daily for four days • 4) Prednisone, 15 mg daily for four days
The volunteer (healthy males, 18-50 years) were randomly allocated to one of the above three groups and orally administered the test drug for four consecutive days. On the morning of the fourth day (after intake of the first dose), experimental acute inflammation was elicited by infection with UV-killed E. coli. The drug and the placebo were provided as capsules.
UV killed E. coli (Strain: NCTC 10418, Source: Public Health England, UK) were prepared as follows. E. coli described were grown overnight in Luria Broth (Sigma) at 37° C. The next morning, the bacteria were washed twice in sterile PBS (2500 g, 20 min, 4° C.) and resuspended in a sterile petri dish.
Bacteria were then killed by exposure to an ultraviolet light (UV) source (302 nm, ChemiDoc, trans-UV mode; Bio-Rad laboratories) for 60 min and then washed again in sterile saline. Bacterial counts were determined by optical density (OD600=0.365 equates to […] E. coli/ml). UVKEc were resuspended in a volume of sterile saline to obtain the count of 1.5×10^8/ml, aliquoted into sterile eppendorf tubes and then frozen at −80° C. until used for injections.
After disinfecting and shaving the skin, 1.5×10^7 UVKEc in 100 μl saline were injected intradermally into a marked site on the volar aspect of each forearm. To characterize the treatment of infection using ajulemic acid, each forearm was allotted to one of the predefined time-points namely 4, 8, 14, 24, 48 or 72 hours (h). Thus the effects of intradermal injection of UVKEc were allowed to progress for the duration of the time-point after which a suction blister was raised over the marked injection site, and then aspirated immediately. In summary, volunteer had two injection sites, one on each forearm, and contributed to two time points. On a separate group of volunteers, blister was raised on the naïve skin and treated as the baseline time point. Study time-points were discussed with volunteers before consenting.
Laser Doppler Imager (moor LDI-HIR, Moor Instruments Ltd, Axminster, Devon, UK) was used to quantify the blood flow at the site of infection. At predefined time points after injection of UVKEc, the forearm was placed under the scanner at a fixed distance to scan a fixed area. The scanner emits a laser beam, a portion of which is scattered by red blood cells present at the inflamed area. The scattering causes a change in frequency of the reflected light which is then detected by a photo detector. The velocity and concentration of red blood cells at the site directly affect the Doppler frequency shifts and account for the signal strength measured in arbitrary perfusion units. […] The total blood flow (measured in perfusion units) was calculated as product of number of valid pixels above background signal (Cut-off=300 perfusion units) and the mean blood flow signal over the valid pixels 11, 12.
To obtain the exudate from the site of infection, a 10 mm diameter suction blister was induced directly over the site of injection. […]

## C[C@]12C=CC(=O)C=C1CC[C@@H]1[C@@H]2C(=O)C[C@@]2(C)[C@H]1CC[C@]2(O)C(=O)CO [prednisone, reference compound]
After UVKEc triggered acute inflammation, multiple time points
  rise in C-reactive protein (CRP) levels in serum: does appear to inhibit the rise in CRP
Ajulemic acid 5 mg or 20 mg BID, prednisone 15 mg daily, 4 h and 10 h, relative to placebo
  infiltration of neutrophils at the site of inflammation (blister exudate): decrease in the infiltration of neutrophils
Ajulemic acid 5 mg or 20 mg BID, prednisone 15 mg daily, 4 hr and 10 hr, limulus amoebocyte lysate test
  levels of endotoxin at the site of injection: appears to increase the levels of endotoxin
Prednisone 15 mg daily, four days
  bacterial clearance: does not increase bacterial clearance and may slow the rate of bacterial clearance
